The test system of one experiment is normal dogs. The experiment is described as follows: intravenous infusion of ASBNP.1 in normal dogs. The format is in vivo, dog. How it is done:
A truncated form of ASBNP that terminates prior to the cysteine and contains a 13 amino acid C-terminus tail was designed and synthesized. This polypeptide is referred to as an ASBNP.1 polypeptide (FIG. 1). The biological effects of intravenous ABNP.1 infusion were tested in normal dogs. Briefly, six normal dogs were infused with 2, 10, and 100 pmol of an ASBNP.1 polypeptide preparation, i.e., each dog received consecutive infusions of 2, 10, and 100 pmol of an ASBNP.1 polypeptide preparation. Urine flow, urinary sodium excretion, distal fractional tubular sodium reabsorption, proximal tubular fractional sodium reabsorption, mean arterial blood pressure, plasma cGMP levels, glomerular filtration rate, renal blood flow, and plasma renin levels were measured as described elsewhere (Chen et al., Am. J. Physiol. Regul. Integr. Comp. Physiol., 288: R1093-R1097 (2005) and Haber et al., J. Clin. Endocrinol. Metab., 29:1349-1355 (2005)). […] Systemic administration of the ASBNP.1 polypeptide had no effect on glomerular filtration rate, renal blood flow, or mean arterial blood pressure (FIGS. 8-10).

Another experiment deals with HUVECs. The experiment is described as follows: cGMP levels in HUVECs. The class given is cell-based, human. An excerpt:
FIG. 11 is a bar graph plotting cGMP levels in HUVECS treated with BNP, ASBNP, or ASBNP.1 at the indicated concentrations. OX represents oxidized, and non-OX represents non-oxidized.
(§1) In some embodiments, a polypeptide provide herein can lack the ability to stimulate production of cGMP in human umbilical vascular endothelial cells (HUVEC). Intracellular cGMP production can be assayed using, for example, the BIOTRACK cGMP enzyme immunoassay kit (Amersham Pharmacia Biotech). In other embodiments, a polypeptide provide herein can lack vasoactivity. Vasoactivity can be assessed by determining responsitivity of a blood vessel (e.g., a carotid artery in an organ chamber) to the polypeptide.
(§2) The following experiments were performed to compare the activities of BNP, ASBNP, and ASBNP.1 polypeptides. Briefly, synthesized forms of BNP, ASBNP, and ASBNP.1 were administered to HUVECs and HASMCs, and cGMP levels were determined.

Another experiment relates to paced dogs. The experiment is described as follows: 90 minute infusion of ASBNP.1 (100 pmol/kg/minute) in paced dogs. The class given is in vivo, dog. Conditions: 100 pmol/kg/minute for 90 minutes. As to the method:
FIG. 34 is a graph plotting urinary sodium excretion (microEq/min) in paced dogs at the indicated times after beginning administration of ASBNP.1 polypeptide (100 pmol/kg/minute) for 90 minutes. BL=baseline; 30 min=30 minutes of ASBNP.1 polypeptide administration; 60 min=60 minutes of ASBNP.1 polypeptide administration; 90 min=90 minutes of ASBNP.1 polypeptide administration; Washout=after washout period at stop of infusion; Rec 1=30 minutes after stopping infusion; and Rec 2=60 minutes after stopping infusion.
In another experiment, an ASBNP.1 polypeptide preparation was administered to dogs (100 pmol/kg/minute for 90 minutes). Urinary sodium excretion, urine flow, mean arterial blood pressure, renal blood flow, pulmonary capillary wedge pressure, and cardiac output were measured after 30, 60, and 90 minutes of administering the ASBNP.1 polypeptide. Administration of ASBNP.1 polypeptide was followed by a washout period of 30 minutes. The washout was performed by administering normal saline. Urinary sodium excretion, urine flow, mean arterial blood pressure, renal blood flow, pulmonary capillary wedge pressure, and cardiac output were measured again after the washout period, and after each of two recovery periods at 60 minutes (Rec 1) and 90 minutes (Rec 2) after administration of the ASBNP.1 polypeptide.

For experiment [1], the system named is rabbit artery that was pre-constricted. The experiment is described as follows: vasoactivity in pre-constricted rabbit artery (vascular rings). The following applies: compared with BNP.
Excerpt: FIG. 13 is a line graph plotting vasoactivity measurements obtained from rabbit vascular rings treated with either BNP, ASBNP, or ASBNP.1 at the indicated concentrations.
as §1, §2

The test system of experiment [2] is paced dog model of congestive heart failure (CHF). The experiment is described as follows: intravenous infusion in paced dog model of congestive heart failure (CHF), consecutive doses. The class given is in vivo. Conditions: paced CHF dogs. How it is done:
The biological effects of intravenous ABNP.1 infusion were tested in a paced dog model of congestive heart failure (CHF). Briefly, 10 dogs underwent surgical implantation of a programmable cardiac pacemaker (Medtronic, Minneapolis, Minn.). After postoperative recovery, the animals received 11 days of rapid ventricular pacing (240 beats/minute), which can induce overt congestive heart failure CHF as described elsewhere (Chen et al., Circulation, 100:2443-2448 (1999)). The dogs were intravenously infused with 2, 10, and 100 pmol of an ASBNP.1 polypeptide preparation, i.e., each dog received consecutive infusions of 2, 10, and 100 pmol of an ASBNP.1 polypeptide preparation.
Acute hemodynamic studies were performed at the time of infusion, and comparisons were made between groups and among dogs at baseline and during each infusion. Urine flow, urinary sodium excretion, distal fractional tubular sodium reabsorption, proximal tubular fractional sodium reabsorption, plasma cGMP levels, rennin levels, glomerular filtration rate, renal blood flow, mean arterial blood pressure, urinary cGMP excretion, urinary ANP excretion, urinary BNP excretion, plasma BNP levels, plasma ANP levels, pulmonary capillary wedge pressure, cardiac output, systemic vascular resistance, angiotensin II levels, and aldosterone levels were measured as described elsewhere (Chen et al., Am. J. Physiol. Regul. Integr. Comp. Physiol., 288: R1093-R1097 (2005) and Haber et al., J. Clin. Endocrinol. Metab., 29:1349-1355 (2005)). […] There was no effect on distal tubular fractional sodium reabsorption, proximal tubular fractional sodium reabsorption renal blood flow, plasma cGMP, mean arterial blood pressure, plasma BNP, plasma ANP, pulmonary capillary wedge pressure, or angiotensin II levels (FIGS. 17, 18, 19, 22, 23, 28, 29, and 32).

For the next experiment, the system named is HASMCs. The experiment is described as follows: cGMP levels in HASMCs. The format is cell-based. How it is done: FIG. 12 is a bar graph plotting cGMP levels in HASMCS treated with BNP, ASBNP, or ASBNP.1 at the indicated concentrations. OX represents oxidized, and non-OX represents non-oxidized.
as §2

Setting [3] is: normal dogs, 2, 10, 100 pmol i.v.
The mark [4] stands for this setting: normal dogs, consecutive i.v. infusions of 2, 10, 100 pmol.
Where [5] appears, read: consecutive i.v. infusions of 2, 10, 100 pmol.

Consider 2 substances from patent US20160375103A1, “DIURETIC AND NATRIURETIC POLYPEPTIDES” (Mayo Foundation for Medical Education and Research, priority 2006, published 2016).

For “ASBNP.1: truncated form of ASBNP that terminates prior to the cysteine, 13 amino acid C-terminus tail; 42 amino acid residues (SEQ ID NO:1) (SPKMVQGSGCFGRKMDRISSSSGLGCKGKHPLPPRPPSPIPV)”, in the experiment on normal dogs (setting [3]), the “distal and proximal tubular fractional sodium reabsorption” value is recorded as “targeted distal tubules”; the glomerular filtration rate result was “no effect”; the “mean arterial blood pressure” value was “no effect”; the renal blood flow entry is “no effect”. Further, in the experiment with normal dogs (setting [4]), the “urinary sodium excretion (natriuretic effect)” value was “diuretic and natriuretic effects”; the “urine flow (diuretic effect)” value was “diuretic and natriuretic effects”. Moreover, the “plasma cGMP” value with normal dogs (normal dogs, super high is 100 pmol) is listed as “elevated at the super high dose”. Besides, the plasma renin entry with normal dogs (normal dogs, two higher doses 10 and 100 pmol) is listed as “trend towards a decreased renin at the two higher doses”. Besides, in the experiment with HUVECs, the “cGMP levels in HUVECs” value is listed as “no effect”. In the experiment with paced dogs, the “PAP (pulmonary arterial pressure)” value is reported as “without a change”, the “RAP (right arterial pressure)” value is recorded as “without a change”, the cardiac output entry is on record as “No significant effect” and the “mean arterial blood pressure” value is “No significant effect”. Further, in the experiment with paced dogs, the renal blood flow result is given as “No significant effect”, the urinary sodium excretion result is listed as “increase” and the urine flow entry is listed as “increase”. For the same substance, the “pulmonary capillary wedge pressure” value in the experiment on paced dogs (60 minutes after administration) is on record as “decrease”. In experiment [1], the “vasoactivity on pre-constricted rabbit artery” value is on record as “no effect”. Also, in experiment [2], the aldosterone entry is “increased from the administration of the low level of polypeptide and continued to increase throughout the remainder of the experiment”; the “angiotensin II levels” value is “no effect”; the cardiac output entry was “decreased from the administration of the high level of polypeptide and remained decrease throughout the remainder of the experiment”; the “distal tubular fractional sodium reabsorption” value was “no effect”. Besides, in experiment [2], the “mean arterial blood pressure” value is “no effect”, the “plasma ANP” value is given as “no effect”, the “plasma BNP” value is “no effect” and the “plasma cGMP” value is recorded as “no effect”. In addition, in experiment [2], the “proximal tubular fractional sodium reabsorption” value was “no effect”, the “pulmonary capillary wedge pressure” value is recorded as “no effect”, the renal blood flow result is listed as “no effect” and the renin entry is “increased throughout the washout period”. In addition, the systemic vascular resistance result in experiment [2] was “increased during the high, super high, washout, and recovery 1 phases”. In experiment [2] (setting [5]), the “urinary sodium excretion (natriuretic effect)” value is given as “diuretic but not natriuretic effects” and the “urine flow (diuretic effect)” value was “diuretic but not natriuretic effects”. Further, the glomerular filtration rate entry in experiment [2] (high is 10 pmol) is given as “increased glomerular filtration rate at the high level”. Moreover, the “urinary cGMP excretion” value in experiment [2] (high is 10 pmol, super high is 100 pmol) is “increased urinary cGMP excretion at the high and super high levels”. Also, the “urinary ANP excretion” value in experiment [2] (high level (10 pmol)) was “increased urinary ANP excretion”. For the same substance, the “urinary BNP excretion” value in experiment [2] (super high level (100 pmol)) is on record as “increased urinary BNP excretion”. Besides, in the experiment on HASMCs, the “cGMP levels in HASMCs” value was “no effect”.

In the case of “ASBNP: variant form of BNP generated by alternative splicing, 60 amino acid residues in length (SEQ ID NO:4) (SPKMVQGSGCFGRKMDRISSSSGLGCKGKHPLPPRPPSPIPVCDTVRVTLGFVVSGNHTL) [reference compound]”, the “cGMP levels in HUVECs” value in the experiment with HUVECs was “minimal effects”. Moreover, the “vasoactivity on pre-constricted rabbit artery” value in experiment [1] was “no effect”. Further, in the experiment with HASMCs, the “cGMP levels in HASMCs” value is on record as “minimal effects”.
